From US9447051B2, “Diaminopyrimidines and uses thereof” (AbbVie inc., priority 2012, dated 2016)

Key:
[1] = test system: HEp-2 cells; experiment: Cytotoxicity (MTT) assay; assay type: cell-based; details: Table 2; uninfected HEp-2 cells, 4 days incubation, 50% toxicity dose
Description: A cytopathetic effect (CPE) protection assay was performed to determine the ability of a compound to protect the cells from viral infection and thus the CPE induced by viral infection. 96-well plates were first seeded with 3×10^3 HEp-2 cells per well in Dulbecco's modified Eagle's medium (DMEM) containing 10% fetal bovine serum (FBS). One day after the cells were seeded, they were preincubated with serial dilutions of compounds prepared in 100 μL assay medium (DMEM mixed with F12 medium at a 1:1 ratio, supplemented with 2% FBS and 1 mM sodium pyruvate) for 1 hour at 37° C. 100 μL of assay medium containing 0.2 multiplicity of infection (MOI) of RSV was then added to each well of cells. In addition to wells containing infected cells incubated with compounds, each plate also contained replicates of two kinds of controls: (1) Virus control contained cells infected with 0.2 MOI of RSV in assay medium, (2) Uninfected cell control contained cells incubated with assay medium only. After 4 days of incubation at 37° C., the viability of cells was assessed using MTT (Thiazolyl blue tetrazolium bromide, Sigma). A stock solution of MTT, at a concentration of 4 mg/mL in phosphate-buffered saline, was added to all wells at 25 μL per well. Plates were further incubated for 4 hours, and each well was then treated with 50 μL of a solution containing 20% sodium dodecyl sulfate (SDS) and 0.02 N HCl. After an overnight incubation, the plates were measured on a BioTek® microtiter plate reader at wavelengths of 570 nm and 650 nm. The MTT detection is based on the fact that viable (uninfected) cells can reduce the tetrazolium salts into colored formazan products, which can then be quantitated by spectrometry. Based on the spectrometric absorbance of each sample, the percent of protection from CPE, which is an indicator of protection from viral infection, can be calculated for each compound and the 50% effective concentrations (EC50) can be calculated using a nonlinear regression curve fitting equation provided by the GraphPad Prism® 4 software.
Cytotoxicity of the compounds was determined in experiments done in parallel with the antiviral assays. To do this, 100 μL of assay medium was added to the wells of HEp-2 cells pretreated with 100 μL serially diluted compounds as described above. After 4 days of incubation, the viability of the cells was determined by the MTT assay in the same way as detailed in the “Antiviral Assay” method. Results were expressed as 50% toxicity dose (TD50) values.
Compounds were tested to determine both their antiviral and toxicity to determine their therapeutic window. Determination of the EC50 and TD50 of these active compounds were repeated one additional time to confirm the window.

[2] = test system: RSV (Group A, Long Strain); experiment: Antiviral (RSV) assay: cytopathetic effect (CPE) protection assay in HEp-2 cells, MTT readout; assay type: cell-based, human respiratory syncytial virus (RSV); details: human respiratory syncytial virus, HEp-2, 96 h
Description: HEp-2 cells and RSV (Group A, Long Strain) were obtained from the American Type Culture Collection (Manassas, Va.). A cytopathetic effect (CPE) protection assay was performed to determine the ability of a compound to protect the cells from viral infection and thus the CPE induced by viral infection. 96-well plates were first seeded with 3×10^3 HEp-2 cells per well in Dulbecco's modified Eagle's medium (DMEM) containing 10% fetal bovine serum (FBS). One day after the cells were seeded, they were preincubated with serial dilutions of compounds prepared in 100 μL assay medium (DMEM mixed with F12 medium at a 1:1 ratio, supplemented with 2% FBS and 1 mM sodium pyruvate) for 1 hour at 37° C. 100 μL of assay medium containing 0.2 multiplicity of infection (MOI) of RSV was then added to each well of cells. In addition to wells containing infected cells incubated with compounds, each plate also contained replicates of two kinds of controls: (1) Virus control contained cells infected with 0.2 MOI of RSV in assay medium, (2) Uninfected cell control contained cells incubated with assay medium only. After 4 days of incubation at 37° C., the viability of cells was assessed using MTT (Thiazolyl blue tetrazolium bromide, Sigma). A stock solution of MTT, at a concentration of 4 mg/mL in phosphate-buffered saline, was added to all wells at 25 μL per well. Plates were further incubated for 4 hours, and each well was then treated with 50 μL of a solution containing 20% sodium dodecyl sulfate (SDS) and 0.02 N HCl. After an overnight incubation, the plates were measured on a BioTek® microtiter plate reader at wavelengths of 570 nm and 650 nm. The MTT detection is based on the fact that viable (uninfected) cells can reduce the tetrazolium salts into colored formazan products, which can then be quantitated by spectrometry. […] Compounds were tested to determine both their antiviral and toxicity to determine their therapeutic window. Determination of the EC50 and TD50 of these active compounds were repeated one additional time to confirm the window.

[3] = Table 1, 0.2 MOI RSV, 4 days incubation, protection from CPE
[4] = Table 2, 0.2 MOI RSV, 4 days, determination repeated to confirm window

SMILES: Cc1ccccc1CNc1nc(NCc2ccccn2)nc2c1CCC2 [Example 2, N^4-(2-methylbenzyl)-N^2-(pyridin-2-ylmethyl)-6,7-dihydro-5H-cyclopenta[d]pyrimidine-2,4-diamine]
- MTT TD50 [1]: 7.17 µM
- EC50 [2, 3]: 2050 nM
- EC50 [2, 4]: 2050 nM

SMILES: Cc1nc(NCc2ccccn2)nc(NC2CCCCC2)c1C [Example 1, N^4-cyclohexyl-5,6-dimethyl-N^2-(pyridin-2-ylmethyl)pyrimidine-2,4-diamine]
- MTT TD50 [1]: 23.00 µM
- EC50 [2, 3]: 250 nM
- EC50 [2, 4]: 150 nM

SMILES: Cc1cc(NC2CCCCCC2)nc(NCc2ccccn2)n1 [Example 3, N^4-cycloheptyl-6-methyl-N^2-(pyridin-2-ylmethyl)pyrimidine-2,4-diamine]
- MTT TD50 [1]: 8.04 µM
- EC50 [2, 3]: 2790 nM
- EC50 [2, 4]: 2790 nM

SMILES: Cc1cc(NC2CCCCC2)nc(NCc2ccccn2)n1 [Example 4, N^4-cyclohexyl-6-methyl-N^2-(pyridin-2-ylmethyl)pyrimidine-2,4-diamine]
- MTT TD50 [1]: 39.00 µM
- EC50 [2, 3]: 23500 nM
- EC50 [2, 4]: 23500 nM

SMILES: Cc1nc(NCc2ccccn2)nc(NC2CCN(C(=O)OC(C)(C)C)CC2)c1C [Example 82, tert-butyl 4-({5,6-dimethyl-2-[(pyridin-2-ylmethyl)amino]pyrimidin-4-yl}amino)piperidine-1-carboxylate]
- EC50 [2, 3]: 540 nM

SMILES: Cc1nc(NCc2ccccn2)nc(NC2CCCCCC2)c1C [Example 45, N^4-cycloheptyl-5,6-dimethyl-N^2-(pyridin-2-ylmethyl)pyrimidine-2,4-diamine]
- EC50 [2, 3]: 18 nM

SMILES: Cc1nc(NCc2ccccn2)nc(NC2CCN(C)CC2)c1C [Example 81, 5,6-dimethyl-N^4-(1-methylpiperidin-4-yl)-N^2-(pyridin-2-ylmethyl)pyrimidine-2,4-diamine]
- EC50 [2, 3]: 1300 nM

SMILES: Cc1cc(F)ccc1Nc1nc(NCc2ccccn2)nc(C)c1C [Example 75, N^4-(4-fluoro-2-methylphenyl)-5,6-dimethyl-N^2-(pyridin-2-ylmethyl)pyrimidine-2,4-diamine]
- EC50 [2, 3]: 26 nM

SMILES: Cc1nc(NCc2c(C)noc2C)nc(NC2CCCCC2)c1C [Example 23, N^4-cyclohexyl-N^2-[(3,5-dimethyl-1,2-oxazol-4-yl)methyl]-5,6-dimethylpyrimidine-2,4-diamine]
- EC50 [2, 3]: > 10000 nM

SMILES: Cc1nc(NCc2ccccn2)nc(N[C@H]2CC[C@H](O)CC2)c1C [Example 79, trans-4-({5,6-dimethyl-2-[(pyridin-2-ylmethyl)amino]pyrimidin-4-yl}amino)cyclohexanol]
- EC50 [2, 3]: 620 nM

SMILES: Cc1nc(NCc2cccc(F)c2)nc(NC2CCCCC2)c1C [Example 13, N^4-cyclohexyl-N^2-(3-fluorobenzyl)-5,6-dimethylpyrimidine-2,4-diamine]
- EC50 [2, 3]: > 1000 nM

SMILES: Cc1nc(NCc2ccccn2)nc(Nc2ccc(F)c(F)c2)c1C [Example 58, N^4-(3,4-difluorophenyl)-5,6-dimethyl-N^2-(pyridin-2-ylmethyl)pyrimidine-2,4-diamine]
- EC50 [2, 3]: 63 nM

SMILES: Cc1nc(NCc2ccccn2)nc(NC2CCOc3ccccc32)c1C (centres unmarked) [Example 36, N^4-(3,4-dihydro-2H-chromen-4-yl)-5,6-dimethyl-N^2-(pyridin-2-ylmethyl)pyrimidine-2,4-diamine]
- EC50 [2, 3]: 530 nM

SMILES: Cc1nc(NCc2ccccn2)nc(Nc2cccc(F)c2C)c1C [Example 76, N^4-(3-fluoro-2-methylphenyl)-5,6-dimethyl-N^2-(pyridin-2-ylmethyl)pyrimidine-2,4-diamine]
- EC50 [2, 3]: 25 nM

SMILES: CCc1c(C)nc(NCc2ccccn2)nc1Nc1ccc(F)cc1 [Example 89, 5-ethyl-N^4-(4-fluorophenyl)-6-methyl-N^2-(pyridin-2-ylmethyl)pyrimidine-2,4-diamine]
- EC50 [2, 3]: 480 nM

SMILES: Cc1nc(NCc2ccccn2)nc(Nc2cccnc2)c1C [Example 93, 5,6-dimethyl-N^4-(pyridin-3-yl)-N^2-(pyridin-2-ylmethyl)pyrimidine-2,4-diamine]
- EC50 [2, 3]: 930 nM

SMILES: Cc1nc(N[C@@H](C)c2ccccc2)nc(NC2CCCCC2)c1C [Example 16, N^4-cyclohexyl-5,6-dimethyl-N^2-[(1S)-1-phenylethyl]pyrimidine-2,4-diamine]
- EC50 [2, 3]: > 3700 nM

SMILES: Cc1nc(NCc2ccccn2)nc(Nc2ccccc2F)c1C [Example 51, N^4-(2-fluorophenyl)-5,6-dimethyl-N^2-(pyridin-2-ylmethyl)pyrimidine-2,4-diamine]
- EC50 [2, 3]: 320 nM

SMILES: Cc1nc(NCc2ccccn2)nc(Nc2c(C(C)C)cccc2C(C)C)c1C [Example 84, N^4-(2,6-diisopropylphenyl)-5,6-dimethyl-N^2-(pyridin-2-ylmethyl)pyrimidine-2,4-diamine]
- EC50 [2, 3]: 16 nM

SMILES: Cc1cc(Nc2nc(NCc3ccccn3)nc(C)c2C)no1 [Example 96, 5,6-dimethyl-N^4-(5-methyl-1,2-oxazol-3-yl)-N^2-(pyridin-2-ylmethyl)pyrimidine-2,4-diamine]
- EC50 [2, 3]: 15000 nM

SMILES: Cc1nc(NCc2ccccn2)nc(Nc2ccc3c(c2)OCO3)c1C [Example 61, N^4-(1,3-benzodioxol-5-yl)-5,6-dimethyl-N^2-(pyridin-2-ylmethyl)pyrimidine-2,4-diamine]
- EC50 [2, 3]: 40 nM
